{
  "source": "paper PMC11881559",
  "about": "(Antimicrobial Agents and Chemotherapy, 2025)",
  "origin": "cited, not measured here",
  "key": {"[1]": {"test_system": "Delta variant of the novel coronavirus", "conditions": "K18-hACE2 mice infected with Delta variant, 300 mg/kg/day; cited from earlier work"}, "[2]": {"test_system": "SARS-CoV-2 variants, including the wild-type, Alpha, Beta, Delta, and Omicron strains", "conditions": "cited from earlier work"}},
  "data": [
    {"smiles": "O=C(NC1CCCC1)C(=O)[C@H](C[C@@H]1CCNC1=O)NC(=O)[C@@H]1[C@H]2CCC[C@H]2CN1C(=O)[C@@H](NC(=O)C(F)(F)F)C1CCCCC1", "note": "[RAY1216, leritrelvir]", "values": [
      {"measurement": "lung viral titers and virus-induced pathology", "setting": "[1]", "result": "significantly decreased lung viral titers and reduced virus-induced pathology"},
      {"measurement": "inhibition of SARS-CoV-2 variants in vitro", "setting": "[2]", "result": "clearly inhibited"}
    ]}
  ]
}
